Reference: ChEMBL document CHEMBL4507274 (2021)

Tests used:
[1] = test system: Epidermal growth factor receptor (Homo sapiens), P00533 [G719C]; details: Compound concentration 100.0 nM
[2] = molecular target: Insulin receptor (Homo sapiens) (UniProt P06213); assay: IR (h) Upstate kinase activity assay; details: Compound concentration 10.0 uM
[3] = molecular target: High affinity nerve growth factor receptor (Homo sapiens) (UniProt P04629); details: Compound concentration 10.0 uM
[4] = test system: Tyrosine-protein kinase ABL1 (Homo sapiens), P00519 [T315I]; assay: Abl(T315I) (h) Upstate kinase activity assay; details: Compound concentration 10.0 uM
[5] = molecular target: T1, Serine/threonine-protein kinase D2 (Homo sapiens) (UniProt Q9BZL6); assay: PKD2 (h) Upstate kinase activity assay; details: Compound concentration 10.0 uM
T1 sequence (whole entry): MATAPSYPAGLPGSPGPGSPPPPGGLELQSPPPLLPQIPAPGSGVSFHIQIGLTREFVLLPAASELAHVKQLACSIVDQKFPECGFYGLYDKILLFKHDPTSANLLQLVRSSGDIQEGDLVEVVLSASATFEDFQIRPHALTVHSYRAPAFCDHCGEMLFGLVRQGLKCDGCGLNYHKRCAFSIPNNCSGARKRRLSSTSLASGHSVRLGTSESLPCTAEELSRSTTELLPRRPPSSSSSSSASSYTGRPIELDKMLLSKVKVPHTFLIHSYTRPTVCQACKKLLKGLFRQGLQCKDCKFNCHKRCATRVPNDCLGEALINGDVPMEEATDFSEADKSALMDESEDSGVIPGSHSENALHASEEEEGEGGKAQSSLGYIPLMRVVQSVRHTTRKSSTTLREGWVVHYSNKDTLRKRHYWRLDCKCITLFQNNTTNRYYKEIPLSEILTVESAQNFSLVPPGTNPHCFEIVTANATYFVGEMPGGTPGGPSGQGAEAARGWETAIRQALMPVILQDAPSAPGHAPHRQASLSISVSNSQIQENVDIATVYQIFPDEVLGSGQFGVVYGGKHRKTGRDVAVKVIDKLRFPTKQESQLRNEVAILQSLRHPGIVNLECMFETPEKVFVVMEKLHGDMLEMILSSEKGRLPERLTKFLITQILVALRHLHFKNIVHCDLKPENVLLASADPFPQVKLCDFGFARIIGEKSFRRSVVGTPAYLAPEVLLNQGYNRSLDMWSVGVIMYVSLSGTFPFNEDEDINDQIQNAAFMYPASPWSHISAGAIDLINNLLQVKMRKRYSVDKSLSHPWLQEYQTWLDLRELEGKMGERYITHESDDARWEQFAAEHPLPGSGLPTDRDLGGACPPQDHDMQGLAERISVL

[6] = molecular target: Macrophage colony-stimulating factor 1 receptor (Homo sapiens) (UniProt P07333); assay: Fms (h) Upstate kinase activity assay; details: Compound concentration 10.0 uM
[7] = molecular target: Sigma non-opioid intracellular receptor 1 (Homo sapiens, UniProt Q99720); assay: GPCRScan assay: inhibition of Sigma 1; set-up: radioligand conc. used [nm] 4.0 – 5.0, parental cells HEKT
Chain of Sigma non-opioid intracellular receptor 1 (Q99720 whole entry): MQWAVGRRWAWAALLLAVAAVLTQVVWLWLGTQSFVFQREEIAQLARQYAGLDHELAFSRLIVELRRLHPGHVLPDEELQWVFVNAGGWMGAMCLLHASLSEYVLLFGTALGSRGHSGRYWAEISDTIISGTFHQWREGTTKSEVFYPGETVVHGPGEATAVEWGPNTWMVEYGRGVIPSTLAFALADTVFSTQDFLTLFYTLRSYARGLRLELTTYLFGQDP

[8] = Lung NCI-1-1460 cell line MDS Pharma Services Proliferation Assay; assay type: functional, cell-based, Homo sapiens
[9] = molecular target: T2, Protein kinase C iota type (Homo sapiens) (UniProt P41743); assay: PKCiota (h) Upstate kinase activity assay; details: Compound concentration 10.0 uM
T2 sequence (whole entry): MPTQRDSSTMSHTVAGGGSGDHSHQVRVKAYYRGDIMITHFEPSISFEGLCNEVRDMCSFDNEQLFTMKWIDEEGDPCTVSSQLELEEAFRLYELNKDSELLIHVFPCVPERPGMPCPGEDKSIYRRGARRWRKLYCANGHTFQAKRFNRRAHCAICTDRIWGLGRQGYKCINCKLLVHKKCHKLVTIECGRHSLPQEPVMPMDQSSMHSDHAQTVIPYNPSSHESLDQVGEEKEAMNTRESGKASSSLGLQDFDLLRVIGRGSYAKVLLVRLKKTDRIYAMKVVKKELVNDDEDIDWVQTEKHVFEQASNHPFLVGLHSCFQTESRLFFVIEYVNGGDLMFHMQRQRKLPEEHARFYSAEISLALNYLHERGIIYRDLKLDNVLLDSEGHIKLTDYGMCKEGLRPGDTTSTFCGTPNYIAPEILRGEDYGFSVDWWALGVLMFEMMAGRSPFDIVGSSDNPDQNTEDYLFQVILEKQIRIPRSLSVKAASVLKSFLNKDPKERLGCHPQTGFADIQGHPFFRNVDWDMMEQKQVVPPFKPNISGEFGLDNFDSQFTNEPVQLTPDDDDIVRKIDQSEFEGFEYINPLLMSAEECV

[10] = molecular target: Dual specificity mitogen-activated protein kinase kinase 1 (Homo sapiens) (UniProt Q02750); assay: MEKI (h) Upstate kinase activity assay; details: Compound concentration 10.0 uM
Chain of Dual specificity mitogen-activated protein kinase kinase 1 (Homo sapiens) (Q02750 whole entry): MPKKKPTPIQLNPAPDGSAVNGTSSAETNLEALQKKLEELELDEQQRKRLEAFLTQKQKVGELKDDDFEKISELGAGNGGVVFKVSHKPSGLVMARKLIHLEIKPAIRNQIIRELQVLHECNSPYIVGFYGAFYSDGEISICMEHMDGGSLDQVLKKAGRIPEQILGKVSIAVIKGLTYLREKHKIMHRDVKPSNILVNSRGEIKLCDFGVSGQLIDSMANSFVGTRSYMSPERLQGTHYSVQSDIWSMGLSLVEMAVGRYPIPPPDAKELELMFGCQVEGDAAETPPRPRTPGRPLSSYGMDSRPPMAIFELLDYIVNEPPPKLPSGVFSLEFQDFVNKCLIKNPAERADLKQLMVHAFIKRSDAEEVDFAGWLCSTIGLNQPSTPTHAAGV

[11] = molecular target: Protein kinase C eta type (Homo sapiens) (UniProt P24723); assay: PKCeta (h) Upstate kinase activity assay; details: Compound concentration 10.0 uM
Chain of Protein kinase C eta type (Homo sapiens) (P24723 whole entry): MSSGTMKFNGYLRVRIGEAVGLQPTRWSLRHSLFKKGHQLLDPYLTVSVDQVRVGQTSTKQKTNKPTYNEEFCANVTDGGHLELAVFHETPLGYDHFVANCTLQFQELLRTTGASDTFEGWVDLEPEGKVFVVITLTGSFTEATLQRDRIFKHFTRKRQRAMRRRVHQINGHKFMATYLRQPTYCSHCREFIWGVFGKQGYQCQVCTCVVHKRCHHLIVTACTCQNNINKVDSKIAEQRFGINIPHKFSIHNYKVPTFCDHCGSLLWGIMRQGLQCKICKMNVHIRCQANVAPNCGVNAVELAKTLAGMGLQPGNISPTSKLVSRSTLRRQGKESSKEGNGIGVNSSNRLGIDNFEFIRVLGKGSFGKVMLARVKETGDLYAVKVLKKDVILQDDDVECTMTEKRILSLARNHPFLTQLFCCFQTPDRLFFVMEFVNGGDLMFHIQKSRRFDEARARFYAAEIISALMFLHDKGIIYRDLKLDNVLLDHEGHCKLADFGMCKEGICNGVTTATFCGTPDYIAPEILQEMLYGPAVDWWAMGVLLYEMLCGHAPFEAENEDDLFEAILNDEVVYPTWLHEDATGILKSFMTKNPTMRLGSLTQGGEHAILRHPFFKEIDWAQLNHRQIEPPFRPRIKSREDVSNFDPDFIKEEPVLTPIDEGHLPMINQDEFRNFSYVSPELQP

[12] = molecular target: Tyrosine-protein kinase ABL2 (Homo sapiens) (UniProt P42684); assay: Arg (h) Upstate kinase activity assay; details: Compound concentration 10.0 uM
Chain of Tyrosine-protein kinase ABL2 (Homo sapiens) (P42684 whole entry): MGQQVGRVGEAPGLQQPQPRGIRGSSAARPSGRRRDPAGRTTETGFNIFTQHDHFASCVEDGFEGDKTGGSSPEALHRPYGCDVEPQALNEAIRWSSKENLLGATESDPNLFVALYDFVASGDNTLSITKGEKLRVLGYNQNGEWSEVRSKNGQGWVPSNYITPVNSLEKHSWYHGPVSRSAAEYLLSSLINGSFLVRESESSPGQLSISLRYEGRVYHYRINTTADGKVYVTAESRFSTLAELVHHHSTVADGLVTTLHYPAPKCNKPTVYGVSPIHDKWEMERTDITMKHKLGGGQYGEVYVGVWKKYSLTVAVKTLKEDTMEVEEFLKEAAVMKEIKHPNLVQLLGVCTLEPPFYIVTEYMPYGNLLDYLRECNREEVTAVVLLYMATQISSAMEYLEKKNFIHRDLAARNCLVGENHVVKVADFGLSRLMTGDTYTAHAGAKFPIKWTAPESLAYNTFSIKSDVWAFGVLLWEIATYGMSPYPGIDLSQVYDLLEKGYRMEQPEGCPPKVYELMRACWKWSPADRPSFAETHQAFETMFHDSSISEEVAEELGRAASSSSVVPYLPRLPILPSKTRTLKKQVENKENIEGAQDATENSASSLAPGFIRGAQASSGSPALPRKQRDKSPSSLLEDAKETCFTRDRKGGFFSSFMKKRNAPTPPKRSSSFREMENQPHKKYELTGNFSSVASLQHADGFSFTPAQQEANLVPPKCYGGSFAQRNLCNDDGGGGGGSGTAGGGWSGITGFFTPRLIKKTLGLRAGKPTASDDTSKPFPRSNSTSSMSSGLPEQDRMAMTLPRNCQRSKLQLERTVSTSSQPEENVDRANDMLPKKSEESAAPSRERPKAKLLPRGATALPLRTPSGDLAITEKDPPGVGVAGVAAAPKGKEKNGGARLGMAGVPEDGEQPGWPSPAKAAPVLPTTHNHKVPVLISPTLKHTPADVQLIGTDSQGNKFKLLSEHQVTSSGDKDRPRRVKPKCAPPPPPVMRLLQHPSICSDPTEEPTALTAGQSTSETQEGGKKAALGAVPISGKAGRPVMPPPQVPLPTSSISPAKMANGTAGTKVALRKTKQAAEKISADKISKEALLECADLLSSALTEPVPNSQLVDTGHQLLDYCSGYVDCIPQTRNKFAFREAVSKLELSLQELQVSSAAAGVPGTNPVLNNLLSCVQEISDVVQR

[13] = molecular target: Platelet-derived growth factor receptor alpha (Homo sapiens) (UniProt P16234); assay: PDGFRalpha (h) Upstate kinase activity assay; details: Compound concentration 10.0 uM
Chain of Platelet-derived growth factor receptor alpha (Homo sapiens) (P16234 whole entry): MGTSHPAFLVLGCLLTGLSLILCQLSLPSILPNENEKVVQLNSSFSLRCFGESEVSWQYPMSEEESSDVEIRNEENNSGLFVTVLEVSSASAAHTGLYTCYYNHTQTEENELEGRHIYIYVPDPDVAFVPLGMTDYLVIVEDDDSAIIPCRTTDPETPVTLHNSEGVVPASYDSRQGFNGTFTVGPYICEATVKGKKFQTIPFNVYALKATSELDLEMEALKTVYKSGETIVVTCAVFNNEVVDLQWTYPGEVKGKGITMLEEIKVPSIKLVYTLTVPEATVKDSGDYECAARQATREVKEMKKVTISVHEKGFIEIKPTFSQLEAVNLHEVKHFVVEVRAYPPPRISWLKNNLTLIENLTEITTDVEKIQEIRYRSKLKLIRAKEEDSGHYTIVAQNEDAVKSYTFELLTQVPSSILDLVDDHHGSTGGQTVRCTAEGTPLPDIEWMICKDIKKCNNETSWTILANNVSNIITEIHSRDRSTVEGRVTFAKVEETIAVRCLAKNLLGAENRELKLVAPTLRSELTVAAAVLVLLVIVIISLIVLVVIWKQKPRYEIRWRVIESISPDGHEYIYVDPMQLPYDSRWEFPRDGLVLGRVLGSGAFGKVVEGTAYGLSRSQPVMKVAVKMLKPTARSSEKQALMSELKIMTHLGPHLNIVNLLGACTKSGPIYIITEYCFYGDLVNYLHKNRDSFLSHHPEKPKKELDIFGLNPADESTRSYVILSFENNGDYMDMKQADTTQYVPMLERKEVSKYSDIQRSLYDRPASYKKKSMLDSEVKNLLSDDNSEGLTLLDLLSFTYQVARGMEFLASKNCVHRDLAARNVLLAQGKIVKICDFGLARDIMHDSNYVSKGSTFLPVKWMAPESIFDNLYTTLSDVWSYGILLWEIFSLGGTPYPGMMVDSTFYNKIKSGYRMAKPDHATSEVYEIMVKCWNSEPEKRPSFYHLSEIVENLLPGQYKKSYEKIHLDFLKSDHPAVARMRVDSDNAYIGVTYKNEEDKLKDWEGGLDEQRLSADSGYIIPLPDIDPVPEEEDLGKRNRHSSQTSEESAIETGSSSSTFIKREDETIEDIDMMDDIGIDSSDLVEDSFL

[14] = molecular target: Protein kinase C beta type (Homo sapiens) (UniProt P05771); assay: PKCBII(h) Upstate kinase activity assay; details: Compound concentration 10.0 uM
Chain of Protein kinase C beta type (Homo sapiens) (P05771 2-671 limits assumed): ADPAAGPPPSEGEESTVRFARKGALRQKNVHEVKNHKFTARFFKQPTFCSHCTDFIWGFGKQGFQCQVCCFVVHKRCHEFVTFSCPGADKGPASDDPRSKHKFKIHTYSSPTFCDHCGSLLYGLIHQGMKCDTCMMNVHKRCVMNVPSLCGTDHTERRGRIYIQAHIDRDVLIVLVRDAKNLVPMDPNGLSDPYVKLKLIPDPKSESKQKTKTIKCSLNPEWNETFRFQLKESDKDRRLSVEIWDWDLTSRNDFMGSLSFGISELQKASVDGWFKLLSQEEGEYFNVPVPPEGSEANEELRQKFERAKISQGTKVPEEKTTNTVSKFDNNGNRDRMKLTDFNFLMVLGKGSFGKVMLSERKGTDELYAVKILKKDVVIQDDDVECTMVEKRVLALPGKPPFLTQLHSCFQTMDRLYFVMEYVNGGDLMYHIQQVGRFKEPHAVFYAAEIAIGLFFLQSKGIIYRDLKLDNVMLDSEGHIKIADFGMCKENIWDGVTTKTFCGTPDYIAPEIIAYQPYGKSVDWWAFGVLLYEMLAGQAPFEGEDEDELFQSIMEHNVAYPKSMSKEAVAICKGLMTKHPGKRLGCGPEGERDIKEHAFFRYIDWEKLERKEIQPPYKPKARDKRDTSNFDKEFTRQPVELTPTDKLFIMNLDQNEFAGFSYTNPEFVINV

Chain of High affinity nerve growth factor receptor (Homo sapiens) (P04629 33-796 limits assumed): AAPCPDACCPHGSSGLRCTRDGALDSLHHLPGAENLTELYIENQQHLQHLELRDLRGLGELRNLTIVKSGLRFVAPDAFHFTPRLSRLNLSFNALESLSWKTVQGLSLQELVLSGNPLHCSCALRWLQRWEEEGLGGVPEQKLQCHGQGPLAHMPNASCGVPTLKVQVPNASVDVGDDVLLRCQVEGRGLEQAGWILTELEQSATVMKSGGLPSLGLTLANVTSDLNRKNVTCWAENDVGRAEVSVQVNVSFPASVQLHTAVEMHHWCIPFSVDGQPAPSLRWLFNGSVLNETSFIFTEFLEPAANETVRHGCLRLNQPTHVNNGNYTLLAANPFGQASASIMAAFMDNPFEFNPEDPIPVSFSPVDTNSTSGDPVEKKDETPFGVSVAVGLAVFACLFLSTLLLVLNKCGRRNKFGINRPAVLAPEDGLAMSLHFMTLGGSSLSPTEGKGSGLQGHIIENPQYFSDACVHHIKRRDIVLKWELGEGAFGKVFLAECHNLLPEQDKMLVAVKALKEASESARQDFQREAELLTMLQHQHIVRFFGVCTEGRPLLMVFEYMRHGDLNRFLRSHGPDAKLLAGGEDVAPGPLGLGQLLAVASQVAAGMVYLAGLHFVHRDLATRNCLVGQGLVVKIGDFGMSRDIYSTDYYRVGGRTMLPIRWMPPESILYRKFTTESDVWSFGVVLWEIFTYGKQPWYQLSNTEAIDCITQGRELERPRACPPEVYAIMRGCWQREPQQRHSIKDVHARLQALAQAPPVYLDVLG

Row | Compound | residual activity [1] | inhibition [2] | inhibition [3] | inhibition [4] | inhibition [5] | inhibition [6] | Ki [7] | TGI ([8]; Homo sapiens, Lung NCI-1-1460) | CC50 ([8]; Homo sapiens, Lung NCI-1-1460, read-out: LC50 (the source's name)) | Mean % growth (n = 2) for 0.01 µM probe concentration ([8]; ± SEM 1 % growth) | Mean % growth (n = 2) for 10.0 µM probe concentration ([8]; ± SEM 1 % growth) | Mean % growth (n = 2) for 1.0 µM probe concentration ([8]; ± SEM 2 % growth) | Mean % growth (n = 2) for 0.1 µM probe concentration ([8]; ± SEM 3 % growth) | Mean % growth (n = 2) for 100.0 µM probe concentration ([8]; ± SEM 12 % growth) | inhibition [9] | inhibition [10] | inhibition [11] | inhibition [12] | inhibition [13] | inhibition [14]
1 | Cn1cc(Cl)c2c(Oc3c(F)cc(Nc4cc(Cl)nc(N)n4)cc3F)ccnc21 [BAY-4900] | 95% | – | – | – | – | – | – | – | – | – | – | – | – | – | – | – | – | – | – | –
2 | Cc1c[nH]c2nccc(Oc3c(F)cc(Nc4cc(Cl)nc(N)n4)cc3F)c12 [BAY-549] | – | 59% | 99% | 28% | 28% | 64% | 6.77 µM | 11 µM | > 100 µM | 98% | 2% | 50% | 82% | -45% | 18% | 9% | 24% | 37% | 3% | 9%
